The IC50 is the concentration that inhibits the measured activity by half.

Structures are written as SMILES. Read-outs that look alike come from different tables or passages of the source.

The target of one test is human TLR7 (Homo sapiens (Human), UniProt Q9NYK1). In words: TLR7 inhibition reporter assay (HEK-Blue cells, SEAP reporter, gardiquimod stimulation). Type of test: cell-based.
Another test concerns the target human TLR9 (Homo sapiens (Human), UniProt Q9NR96). Nature of the test: TLR9 inhibition reporter assay (HEK-Blue cells, SEAP reporter, ODN2006 stimulation).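 Note: compounds tested over 0.05 nM to 50 µM, 22 h incubation, inhibition taken as SEAP signal drop from agonist plus DMSO wells toward a known inhibitor control.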 For orientation: In a reporter assay the amount or activity of a reporter protein is the signal.
Another test addresses human TLR8 (Homo sapiens (Human), UniProt Q9NR97). Nature of the test: TLR8 inhibition reporter assay (HEK-Blue cells, SEAP reporter, R848 stimulation).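 Note: compounds tested from 0.05 nM to 50 µM, 22 h at 37 °C, SEAP measured with HEK-Blue Detection, inhibition relative to agonist plus DMSO versus a known inhibitor.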
The mark [1] stands for this setting: HEK-Blue cells, gardiquimod 7.5 μM.
Where [2] appears, read: read-out: TLR9 IC50, HEK-Blue cells, ODN2006 5 nM.
[3] abbreviates: read-out: TLR8 IC50, HEK-Blue cells, R848 15.9 μM.
Setting [4] is: HEK-Blue cells overexpressing human TLR7, gardiquimod 7.5 μM.
Where [5] appears, read: read-out: TLR9 IC50, HEK-Blue cells overexpressing human TLR9, ODN2006 5 nM.
[6] abbreviates: read-out: TLR8 IC50, HEK-Blue cells overexpressing human TLR8, R848 15.9 μM.

Sequence of human TLR8 (Q9NR97 27-1041): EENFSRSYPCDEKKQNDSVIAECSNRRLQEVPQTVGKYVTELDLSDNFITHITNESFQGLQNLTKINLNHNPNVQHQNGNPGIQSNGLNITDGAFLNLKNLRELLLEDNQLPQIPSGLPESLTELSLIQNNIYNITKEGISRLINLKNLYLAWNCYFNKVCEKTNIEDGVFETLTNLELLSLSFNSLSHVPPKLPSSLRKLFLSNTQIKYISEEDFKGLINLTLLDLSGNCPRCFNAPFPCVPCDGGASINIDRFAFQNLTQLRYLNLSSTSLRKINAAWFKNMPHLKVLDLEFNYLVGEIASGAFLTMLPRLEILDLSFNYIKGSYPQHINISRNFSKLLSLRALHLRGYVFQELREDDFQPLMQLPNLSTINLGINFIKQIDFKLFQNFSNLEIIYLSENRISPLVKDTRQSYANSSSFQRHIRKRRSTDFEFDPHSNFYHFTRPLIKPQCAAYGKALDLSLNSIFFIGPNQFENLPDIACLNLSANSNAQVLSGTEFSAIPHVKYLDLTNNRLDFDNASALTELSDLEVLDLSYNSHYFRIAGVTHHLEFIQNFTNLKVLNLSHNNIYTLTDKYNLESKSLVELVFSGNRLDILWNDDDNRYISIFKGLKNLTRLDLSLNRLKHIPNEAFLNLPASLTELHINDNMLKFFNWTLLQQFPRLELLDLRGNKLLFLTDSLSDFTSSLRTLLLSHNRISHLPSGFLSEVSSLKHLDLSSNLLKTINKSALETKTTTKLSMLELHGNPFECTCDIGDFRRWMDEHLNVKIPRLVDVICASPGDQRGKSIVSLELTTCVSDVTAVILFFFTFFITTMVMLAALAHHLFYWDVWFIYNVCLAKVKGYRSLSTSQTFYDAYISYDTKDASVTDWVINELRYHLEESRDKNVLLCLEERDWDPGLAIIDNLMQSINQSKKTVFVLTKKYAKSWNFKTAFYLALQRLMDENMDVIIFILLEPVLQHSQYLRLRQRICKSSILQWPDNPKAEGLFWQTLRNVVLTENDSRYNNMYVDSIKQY
Sequence of human TLR7 (Q9NYK1 27-1049): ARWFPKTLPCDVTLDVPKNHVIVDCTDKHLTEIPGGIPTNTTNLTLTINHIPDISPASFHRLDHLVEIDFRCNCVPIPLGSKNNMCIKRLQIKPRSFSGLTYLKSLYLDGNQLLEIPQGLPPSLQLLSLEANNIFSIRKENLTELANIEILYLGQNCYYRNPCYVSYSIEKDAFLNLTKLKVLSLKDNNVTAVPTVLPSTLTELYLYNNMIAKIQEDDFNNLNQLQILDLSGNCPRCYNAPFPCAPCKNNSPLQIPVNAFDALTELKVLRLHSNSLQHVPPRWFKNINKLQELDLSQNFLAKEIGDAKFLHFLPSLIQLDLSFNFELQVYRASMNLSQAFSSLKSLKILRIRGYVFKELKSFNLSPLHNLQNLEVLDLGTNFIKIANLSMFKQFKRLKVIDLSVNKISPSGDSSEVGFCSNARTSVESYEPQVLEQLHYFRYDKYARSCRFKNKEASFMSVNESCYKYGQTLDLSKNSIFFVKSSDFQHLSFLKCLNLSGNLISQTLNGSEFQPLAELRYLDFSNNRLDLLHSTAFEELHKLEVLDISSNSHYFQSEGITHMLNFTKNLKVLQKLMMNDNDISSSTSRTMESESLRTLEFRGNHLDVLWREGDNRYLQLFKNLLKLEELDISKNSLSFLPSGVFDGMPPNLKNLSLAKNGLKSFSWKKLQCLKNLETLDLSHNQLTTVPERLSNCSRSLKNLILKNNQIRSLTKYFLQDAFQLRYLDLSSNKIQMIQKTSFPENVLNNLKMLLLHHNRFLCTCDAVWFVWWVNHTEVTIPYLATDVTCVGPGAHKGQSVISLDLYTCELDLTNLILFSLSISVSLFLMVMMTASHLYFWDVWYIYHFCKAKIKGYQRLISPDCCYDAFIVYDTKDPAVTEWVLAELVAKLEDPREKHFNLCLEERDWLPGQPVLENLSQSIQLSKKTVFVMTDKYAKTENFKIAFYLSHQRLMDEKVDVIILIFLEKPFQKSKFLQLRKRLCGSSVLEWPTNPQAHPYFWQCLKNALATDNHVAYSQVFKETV
Sequence of human TLR9 (Q9NR96 26-1032): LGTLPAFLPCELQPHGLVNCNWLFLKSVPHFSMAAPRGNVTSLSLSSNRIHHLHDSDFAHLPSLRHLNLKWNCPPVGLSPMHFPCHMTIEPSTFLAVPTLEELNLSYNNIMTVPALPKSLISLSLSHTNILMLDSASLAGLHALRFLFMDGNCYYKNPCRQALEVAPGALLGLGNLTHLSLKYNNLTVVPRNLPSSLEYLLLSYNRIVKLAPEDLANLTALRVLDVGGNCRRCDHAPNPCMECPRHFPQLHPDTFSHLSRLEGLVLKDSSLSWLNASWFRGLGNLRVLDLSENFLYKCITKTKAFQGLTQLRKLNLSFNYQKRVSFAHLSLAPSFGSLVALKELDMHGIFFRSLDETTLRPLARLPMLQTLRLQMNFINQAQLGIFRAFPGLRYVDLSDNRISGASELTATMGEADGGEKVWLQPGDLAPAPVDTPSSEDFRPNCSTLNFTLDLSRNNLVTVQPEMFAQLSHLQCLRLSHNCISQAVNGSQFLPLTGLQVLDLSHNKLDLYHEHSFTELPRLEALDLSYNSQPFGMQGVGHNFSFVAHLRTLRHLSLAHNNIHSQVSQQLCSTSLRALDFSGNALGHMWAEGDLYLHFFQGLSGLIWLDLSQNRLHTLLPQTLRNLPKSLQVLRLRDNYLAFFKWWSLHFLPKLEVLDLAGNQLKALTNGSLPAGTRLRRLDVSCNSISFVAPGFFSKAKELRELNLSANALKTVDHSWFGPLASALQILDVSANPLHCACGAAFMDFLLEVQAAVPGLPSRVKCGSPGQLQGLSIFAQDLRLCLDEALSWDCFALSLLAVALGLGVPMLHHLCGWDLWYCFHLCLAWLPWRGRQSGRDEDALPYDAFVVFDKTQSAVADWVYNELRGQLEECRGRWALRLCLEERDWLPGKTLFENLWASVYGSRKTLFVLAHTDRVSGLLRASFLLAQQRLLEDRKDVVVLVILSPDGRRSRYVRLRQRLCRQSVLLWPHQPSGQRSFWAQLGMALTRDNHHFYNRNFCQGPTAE

In the case of `Cc1cc(-c2[nH]c3ccc(C4CCN(C(=O)C(=O)N(C)CCN(C)C)CC4)cc3c2C(C)C)cc(C)n1` [Example 858, N-(2-(dimethylamino)ethyl)-2-(4-(2-(2,6-dimethylpyridin-4-yl)-3-isopropyl-1H-indol-5-yl)piperidin-1-yl)-N-methyl-2-oxoacetamide], the IC50 at human TLR7 (setting [1]) came to 1.9 nM; on human TLR9 (setting [2]), 519 nM; at human TLR8 (setting [3]), 5.7 nM.

On to `CC(C)c1c(-c2cc(F)ncc2Cl)[nH]c2ccc(C3CCNCC3)cc12` [Example 18, 2-(5-chloro-2-fluoropyridin-4-yl)-3-isopropyl-5-(piperidin-4-yl)-1H-indole], for which the figures for the half-inhibitory concentration (IC50) against human TLR7 (setting [4]), at human TLR9 (setting [5]) and at human TLR8 (setting [6]) were 177 nM, 6270 nM and 47 nM, respectively.

In the case of `Cc1cc(-c2[nH]c3ccc(C4CCN(C(=O)C5CCNC5)CC4)cc3c2C(C)C)cc(C)n1` (single isomer, unassigned) [Example 182, (4-(2-(2,6-dimethylpyridin-4-yl)-3-isopropyl-1H-indol-5-yl)piperidin-1-yl)(pyrrolidin-3-yl) methanone], the IC50 amounted to 1.3 nM on human TLR7 (setting [4]); 151 nM at human TLR9 (TLR9 IC50, HEK-Blue cells overexpressing human TLR9, ODN2006 5 nM); 12 nM at human TLR8 (TLR8 IC50, HEK-Blue cells overexpressing human TLR8, R848 15.9 μM).

As to `Cc1cc(-c2[nH]c3ccc(C4CCN(C(C)C)CC4)cc3c2CC(F)F)cc(C)n1` [Example 536, 3-(2,2-difluoroethyl)-2-(2,6-dimethylpyridin-4-yl)-5-(1-isopropylpiperidin-4-yl)-1H-indole], the half-maximal inhibitory concentration (IC50) is 12.1 nM against human TLR7 (setting [4]), 123 nM on human TLR9 (setting [5]) and 20.3 nM at human TLR8 (setting [6]).

For the compound `Cc1cc(-c2[nH]c3ccc(C4CCN(C(=O)CCO)CC4)cc3c2C(C)C)cc(C)n1` [Example 117, 1-(4-(2-(2,6-dimethylpyridin-4-yl)-3-isopropyl-1H-indol-5-yl)piperidin-1-yl)-3-hydroxypropan-1-one], the results for the IC50 against human TLR7 (setting [4]), at human TLR9 (setting [5]) and on human TLR8 (setting [6]) were 6.6 nM, more than 50000 nM and 116 nM, respectively.

Turning to `Cc1cc(-c2[nH]c3ccc(C4CCN(C(=O)C5CCOC(C(C)C)C5)CC4)cc3c2C(C)C)ccn1` (stereo not drawn) [Example 598, (4-(3-isopropyl-2-(2-methylpyridin-4-yl)-1H-indol-5-yl)piperidin-1-yl)(2-isopropyltetrahydro-2H-pyran-4-yl)methanone], the values for the IC50 at human TLR7 (setting [4]), on human TLR9 (setting [5]) and on human TLR8 (setting [6]) were 99.6 nM, 9940 nM and 374 nM, respectively.

Take `CCc1c(-c2ccnc(C)c2)[nH]c2ccc(C3CCN(C(=O)C4CCNC4)CC3)cc12` (stereo not drawn) [Example 595, (4-(3-ethyl-2-(2-methylpyridin-4-yl)-1H-indol-5-yl)piperidin-1-yl)(pyrrolidin-3-yl)methanone]: the half-inhibitory concentration (IC50) against human TLR7 (setting [4]) was 84.7 nM; at human TLR9 (setting [5]), 348 nM; on human TLR8 (setting [6]) it was 32.7 nM.

As to `Cc1cc(-c2[nH]c3ccc(C4CCN(Cc5ccon5)CC4)cc3c2C(C)C)cc(C)n1` [Example 432, 3-((4-(2-(2,6-dimethylpyridin-4-yl)-3-isopropyl-1H-indol-5-yl)piperidin-1-yl)methyl)isoxazole], the IC50 on human TLR7 (setting [4]) came out at 5.6 nM; at human TLR9 (setting [5]), 646 nM; at human TLR8 (setting [6]) it was 8.7 nM.

In the case of `Cc1cc(-c2[nH]c3ccc(C4CCN(CC(=O)N(C)C)CC4)cc3c2C(C)C)cc(F)n1` [Example 500, 2-(4-(2-(2-fluoro-6-methylpyridin-4-yl)-3-isopropyl-1H-indol-5-yl)piperidin-1-yl)-N,N-dimethylacetamide], the IC50 was 6.3 nM on human TLR7 (setting [4]), 3320 nM at human TLR9 (setting [5]) and 14.2 nM on human TLR8 (setting [6]).

Take `Cc1cc(-c2[nH]c3ccc(C4CCN(CC(=O)N5C[C@H](C(F)(F)F)C[C@@H]5CO)CC4)cc3c2C(C)C)cc(C)n1` [Example 301, 2-(4-(2-(2,6-dimethylpyridin-4-yl)-3-isopropyl-1H-indol-5-yl)piperidin-1-yl)-1-((2R,4R)-2-(hydroxymethyl)-4-(trifluoromethyl)pyrrolidin-1-yl)ethan-1-one]: the IC50 on human TLR7 (setting [4]) turned out to be 19.6 nM; on human TLR9 (setting [5]), 1580 nM; at human TLR8 (setting [6]), 118 nM.

As for `Cc1cc(-c2[nH]c3ccc(C4CCN(C(=O)CN5CC[C@@H](O)C5)CC4)cc3c2C(C)C)cc(C)n1` [Example 391, (R)-1-(4-(2-(2,6-dimethylpyridin-4-yl)-3-isopropyl-1H-indol-5-yl)piperidin-1-yl)-2-(3-hydroxypyrrolidin-1-yl)ethan-1-one], the IC50 is 1.3 nM at human TLR7 (setting [4]), 691 nM on human TLR9 (setting [5]) and 6.4 nM at human TLR8 (setting [6]).

Turning to `Cc1cc(-c2[nH]c3ccc(C4CCN(CC(F)F)CC4)cc3c2C(C)C)cc(C)n1` [Example 327, 5-(1-(2,2-difluoroethyl)piperidin-4-yl)-2-(2,6-dimethylpyridin-4-yl)-3-isopropyl-1H-indole], the IC50 against human TLR7 (setting [4]) was determined as 15.6 nM; at human TLR9 (setting [5]), 3720 nM; at human TLR8 (setting [6]) it was 52.9 nM.

As to `COc1cc(-c2[nH]c3ccc(C4CCN(C)CC4)cc3c2C(C)C)ccn1` [Example 638, 3-isopropyl-2-(2-methoxypyridin-4-yl)-5-(1-methylpiperidin-4-yl)-1H-indole], the IC50 on human TLR7 (setting [4]) was 15.6 nM; on human TLR9 (setting [5]), 3300 nM; on human TLR8 (setting [6]), 55.1 nM.

For the compound `CC(=O)N(C)CCC(=O)N1CCC(c2ccc3[nH]c(-c4cc(C)nc(C)c4)c(C(C)C)c3c2)CC1` [Example 134, N-(3-(4-(2-(2,6-dimethylpyridin-4-yl)-3-isopropyl-1H-indol-5-yl)piperidin-1-yl)-3-oxopropyl)-N-methylacetamide], the IC50 against human TLR7 (setting [4]) came to 11.4 nM; on human TLR9 (setting [5]), 34600 nM; at human TLR8 (setting [6]), 90.3 nM.

As to `Cc1cc(-c2[nH]c3ccc(C4CCN(C[C@@H]5CCNC5)CC4)cc3c2C(C)C)ccn1` [Example 738, (R)-3-isopropyl-2-(2-methylpyridin-4-yl)-5-(1-(pyrrolidin-3-ylmethyl)piperidin-4-yl)-1H-indole], the IC50 came out at 11.2 nM against human TLR7 (setting [4]), 282 nM at human TLR9 (setting [5]) and 2.5 nM at human TLR8 (setting [6]).

`CCc1c(-c2ccnc(OC(C)C)c2)[nH]c2ccc(C3CCN(C4CCN(CC(C)C)CC4)CC3)cc12` [Example 769, 3-ethyl-5-(1′-isobutyl-[1,4′-bipiperidin]-4-yl)-2-(2-isopropoxypyridin-4-yl)-1H-indole]: the IC50 on human TLR7 (setting [4]) came out at 5380 nM; on human TLR9 (setting [5]), 1500 nM; at human TLR8 (setting [6]), 1050 nM.

Turning to `Cc1cc(-c2[nH]c3ccc(C4CCN(Cc5nnn[nH]5)CC4)cc3c2C(C)C)c(F)cn1` [Example 696, 5-(1-((1H-tetrazol-5-yl)methyl)piperidin-4-yl)-2-(5-fluoro-2-methylpyridin-4-yl)-3-isopropyl-1H-indole], the IC50 against human TLR7 (setting [4]) is 408 nM; on human TLR9 (setting [5]), more than 50000 nM; on human TLR8 (setting [6]), 104 nM.

On to `Cc1cc(-c2[nH]c3ccc(C4CCN(CC5(C)COC5)CC4)cc3c2C(C)C)c(C)cn1` [Example 872, 2-(2,5-dimethylpyridin-4-yl)-3-isopropyl-5-(1-((3-methyloxetan-3-yl)methyl)piperidin-4-yl)-1H-indole], for which the IC50 at human TLR7 (setting [1]) came to 20.6 nM; at human TLR9 (setting [2]) it was 2320 nM; on human TLR8 (setting [3]), 2.8 nM.

As to `Cc1cc(-c2[nH]c3ccc(C4CCN(CC5(CO)COC5)CC4)cc3c2C(C)C)cc(C)n1` [Example 319, (3-((4-(2-(2,6-dimethylpyridin-4-yl)-3-isopropyl-1H-indol-5-yl)piperidin-1-yl)methyl)oxetan-3-yl)methanol], the IC50 stood at 2.7 nM against human TLR7 (setting [4]), 355 nM on human TLR9 (setting [5]) and 4 nM at human TLR8 (setting [6]).

As for `Cc1cc(-c2[nH]c3ccc(C4CCN(CC5CC5)CC4)cc3c2C(C)C)ccn1` [Example 866, 5-(1-(cyclopropylmethyl)piperidin-4-yl)-3-isopropyl-2-(2-methylpyridin-4-yl)-1H-indole], the values for the IC50 against human TLR7 (setting [1]), at human TLR9 (setting [2]) and at human TLR8 (setting [3]) were 38.1 nM, 1690 nM and 12.2 nM, respectively.

For `Cc1cc(-c2[nH]c3ccc(C4CC(C)(C)N(C)C(C)(C)C4)cc3c2C(C)C)cc(C)n1` [Example 496, 2-(2,6-dimethylpyridin-4-yl)-3-isopropyl-5-(1,2,2,6,6-pentamethylpiperidin-4-yl)-1H-indole], the IC50 on human TLR7 (setting [4]) is 7190 nM; on human TLR9 (setting [5]), more than 50000 nM; at human TLR8 (setting [6]), 9590 nM.

On to `Cc1cc(-c2[nH]c3ccc(C4CCNCC4)cc3c2CC(F)F)cc(C)n1` [Example 492, 3-(2,2-difluoroethyl)-2-(2,6-dimethylpyridin-4-yl)-5-(piperidin-4-yl)-1H-indole], for which the results for the half-maximal inhibitory concentration (IC50) against human TLR7 (setting [4]), at human TLR9 (setting [5]) and on human TLR8 (setting [6]) were 15.8 nM, 539 nM and 54.1 nM, respectively.

With `CC(C)c1c(-c2ccnc(CN)c2)[nH]c2ccc(C3CCNCC3)cc12` [Example 14, (4-(3-isopropyl-5-(piperidin-4-yl)-1H-indol-2-yl)pyridin-2-yl)methanamine], the results for the IC50 against human TLR7 (setting [4]), on human TLR9 (setting [5]) and on human TLR8 (setting [6]) were 423 nM, 1200 nM and 187 nM, respectively.

For the compound `Cc1cc(-c2[nH]c3ccc(C4CCN(C(=O)C5CCOC(C(C)C)C5)CC4)cc3c2C(C)C)cc(C)n1` (stereo not drawn) [Example 200, (4-(2-(2,6-dimethylpyridin-4-yl)-3-isopropyl-1H-indol-5-yl)piperidin-1-yl)(2-isopropyltetrahydro-2H-pyran-4-yl) methanone], the IC50 at human TLR7 (setting [4]) came out at 44.4 nM; on human TLR9 (setting [5]), 11200 nM; at human TLR8 (setting [6]) it was 409 nM.

`Cc1cc(-c2[nH]c3ccc(C4CCN(C(=O)CN5CC(=O)NC5=O)CC4)cc3c2C(C)C)cc(C)n1` [Example 151, 1-(2-(4-(2-(2,6-dimethylpyridin-4-yl)-3-isopropyl-1H-indol-5-yl)piperidin-1-yl)-2-oxoethyl)imidazolidine-2,4-dione]: the IC50 turned out to be 15 nM against human TLR7 (setting [4]), 46700 nM on human TLR9 (setting [5]) and 83.8 nM on human TLR8 (setting [6]).

Source of the values: patent US10660877B2 (BRISTOL-MYERS SQUIBB COMPANY, priority 2016, dated 2020).
